Laboratory results as given in PMC12720125 (Redox Biology, 2025).

What was measured:
[1] = target: T1, lymphoid-specific helicase (LSH) (Homo sapiens, UniProt Q9NRZ9); assay: KD determination, SPR; assay type: binding
T1 sequence (Q9NRZ9 1-838): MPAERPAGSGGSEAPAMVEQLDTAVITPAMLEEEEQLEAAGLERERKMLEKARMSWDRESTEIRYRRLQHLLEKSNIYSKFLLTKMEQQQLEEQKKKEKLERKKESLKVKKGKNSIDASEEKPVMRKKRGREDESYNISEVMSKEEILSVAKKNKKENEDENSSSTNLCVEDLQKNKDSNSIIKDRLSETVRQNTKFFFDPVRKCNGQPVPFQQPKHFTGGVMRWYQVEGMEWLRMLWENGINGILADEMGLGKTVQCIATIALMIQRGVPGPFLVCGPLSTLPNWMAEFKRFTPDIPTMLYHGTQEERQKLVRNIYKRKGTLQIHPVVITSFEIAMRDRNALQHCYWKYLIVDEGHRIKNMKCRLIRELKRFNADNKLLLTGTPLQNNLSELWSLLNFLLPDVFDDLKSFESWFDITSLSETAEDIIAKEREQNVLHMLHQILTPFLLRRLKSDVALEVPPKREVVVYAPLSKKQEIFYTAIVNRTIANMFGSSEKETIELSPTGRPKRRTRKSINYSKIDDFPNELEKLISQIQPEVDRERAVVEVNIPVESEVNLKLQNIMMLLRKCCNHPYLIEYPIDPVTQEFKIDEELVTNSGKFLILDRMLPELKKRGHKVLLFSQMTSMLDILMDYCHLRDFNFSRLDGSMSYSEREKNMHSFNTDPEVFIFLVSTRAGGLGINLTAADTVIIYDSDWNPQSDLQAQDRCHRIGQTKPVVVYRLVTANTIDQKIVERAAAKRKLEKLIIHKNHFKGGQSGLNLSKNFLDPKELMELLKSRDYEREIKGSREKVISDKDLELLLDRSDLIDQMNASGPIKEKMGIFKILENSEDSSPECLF

[2] = target: T1, lymphoid-specific helicase (LSH); assay: SPR; assay type: binding

Row | Compound | Kd [1] [µM] | Kd [2] [µM]
1 | C[C@@H]1CC[C@H]2[C@@H](C)C(=O)O[C@@H]3O[C@@]4(C)CC[C@@H]1[C@]32OO4 [artemisinin] | 32.2 | –
2 | C=C1C(=O)O[C@@H]2O[C@@]3(C)CC[C@H]4[C@H](C)CC[C@@H]1[C@@]24OO3 [ATT, artemisitene] | – | 6.18
